Source: US20100193777A1, “METHOD OF PRODUCING A DESUBSTITUTED COMPOUND, ORGANIC SEMICONDUCTOR FILM AND METHOD OF PRODUCING THE SAME” (FUJIFILM Corporation, priority 2007, published 2010)

Columns and labels:
Type in all cases: physicochemical
[1] = Light resistance test of dye films; details: absorbance at maximum absorption wavelength, 48 h light resistance test
Experimental: The above-described thin films 1 to 4 were each stored for 24 hours under the conditions of 23° C. and 50% RH. Thereafter, these thin films were each subjected to a light resistance test using a merry-go-round type apparatus for testing of light resistance (Cell Testing Apparatus III, trade name, manufactured by Eagle Engineering Co., Ltd., with a filter WG 320, trade name, manufactured by Schott AG). Absorption spectra of the dye films just before the light resistance test and the dye films after the light resistance test for 48 hours were measured using UV-1600 PC (trade name, manufactured by Shimadzu Corporation). A change of absorbance at the maximum absorption wavelength was read from each absorption spectrum.

[2] = Solubility in a solvent (chloroform or water); details: for solubility in water after heating: after heated at 250° C.
Experimental: In the first embodiment of the present invention, the term “solvent-soluble (being soluble in a solvent)” means to show a solubility of 0.1% by mass or more, more preferably 0.5% by mass or more, and further preferably 1% by mass or more, with respect to a solvent in interest when the solvent to which a compound in interest is added is heated under reflux and then cooled down to room temperature. Further, the term “solvent-insolubilization (to make a compound insoluble in a solvent)” means to reduce the solubility by one digit figure or more than the solvent-soluble state. Specifically, with respect to a solvent, when the solvent is heated under reflux and then cooled down to room temperature, it is preferable to reduce from the solubility of 0.1% by mass or more (solvent-soluble) to the solubility of 0.01% by mass or less, further preferably from the solubility of 0.5% by mass or more (solvent-soluble) to the solubility of 0.05% by mass or less, and especially preferably from the solubility of 1% by mass or more (solvent-soluble) to the solubility of less than 0.1% by mass. Further, the term “solvent-insoluble (being insoluble in a solvent)” means to show solubility of less than 0.1% by mass, preferably 0.05% by mass or less, and further preferably 0.01% by mass or less, with respect to a solvent in interest when the solvent to which a compound in interest is added is heated under reflux and then cooled down to room temperature.
There is no particular restriction in the kind of solvent when degrees of the above-described “solvent-soluble” and “solvent-insoluble” are defined. Accordingly, both “solvent-soluble” and “solvent-insoluble” may be defined in terms of solvent and temperature each of which is actually used. Alternatively, for example, these properties may be specified as solubility (25° C.) with respect to water (distilled water). However, the solvent used in the first embodiment of the present invention is not limited by the above.

[3] = TG/DTA thermal analysis (rate of decrease in mass on heating)
Experimental: The thermal analysis (TG/DTA measurement) of the thus-produced Exemplified compound (1) was conducted. The TG/DTA measurement was conducted at the rate of temperature increase of 10° C./min in a range of 30° C. to 550° C. under a current of nitrogen gas (flow rate: 200 ml/min) using EXSTAR 6000 (trade name, manufactured by Seiko Instruments Inc.), to determine a rate of decrease in mass. FIG. 1 is a graph showing TG/DTA measurement results of the Exemplified compound (1). Herein, in each of Examples and Comparative Examples described below, the measurement of TG was conducted using the same apparatus and under the same conditions as described above.
In FIG. 1, the uppermost curve indicates the change of mass with respect to temperature (TG.). The bottom curve indicates the heat going in and out with respect to temperature (enthalpy change) (DTA). The middle curve indicates the amount of change of TG (differential value) per time (DTG).

Compound | solubility in a solvent such as chloroform [2] | solubility in water [2] | further results
CC(C)(C)OC(=O)N1C(=O)C2=C(c3ccccc3)N(C(=O)OC(C)(C)C)C(=O)C2=C1c1ccccc1 [Compound 1 for comparison] | – | – | Residual rate after 48 hours ([1]; dye film after heating): 91%; Residual rate after 48 hours ([1]; dye film before heating): 1.9%
[Cu+2].c1ccc2c(c1)-c1nc-2nc2[n-]c(nc3nc(nc4[n-]c(n1)c1ccccc41)-c1ccccc1-3)c1ccccc21 [cupper phthalocyanine] | so low that a film was not formed | – | –
c1ccc2c(c1)-c1nc-2nc2[nH]c(nc3nc(nc4[nH]c(n1)c1ccccc41)-c1ccccc1-3)c1ccccc21 [metal-free phthalocyanine] | so low that a film was not formed | so low that a film was not formed | –
[Zn+2].c1ccc2c(c1)-c1nc-2nc2[n-]c(nc3nc([n-]c4nc(n1)-c1ccccc1-4)-c1ccccc1-3)c1ccccc21 [zinc phthalocyanine] | so low that a film was not formed | so low that a film was not formed | –
copper phthalocyanine-tetrasulfonic acid tetrasodium salt | – | soluble | temperature of desubstitution of the substituent ([3]; from TG and MS of heated residue): higher than 400 °C; reduction in weight in TG on heating ([3]; heated up to 400° C., after initial loss of solvent or water): did not cause any reduction in weight
metal-free phthalocyanine-tetrasulfonic acid [Exemplified compound (54)] | – | soluble | solubility in water after heating [2]: soluble
zinc phthalocyanine-tetrasulfonic acid [Exemplified compound (53)] | – | soluble | solubility in water after heating [2]: soluble
